Reference: US20250295639A1, “METHODS FOR TREATING HEART DISEASES” (Cytokinetics, Incorporated, priority 2024, published 2025)
Values joined by “and” are separate entries in the source; they are usually repeats but may differ in a detail not shown here. Equal entries are not always repeated.

Test system: patients with symptomatic oHCM
Experiment: SEQUOIA-HCM: cardiopulmonary exercise testing (CPET), incl. by baseline beta blocker use
Type: in vivo, human
Description: The primary objective of this trial was to evaluate the effect of aficamten on exercise capacity in patients with symptomatic oHCM. The indicated endpoint was a change in peak oxygen uptake (pVO2) by cardiopulmonary exercise testing (CPET) from baseline to Week 24. A further secondary objective was to evaluate the effect of aficamten on exercise capacity, as determined by change in total workload during CPET from baseline to Week 24. A further exploratory objective of this trial was to evaluate the effect of aficamten on other CPET parameters, as determined by changes from baseline to Week 24 in: (1) ventilator efficiency (VE/VCO2 slope); (2) circulatory power (VO2× systolic BP); and (3) ventilator anaerobic threshold (VAT). Cardiopulmonary Exercise Testing (CPET). All patients underwent CPET with gas-exchange analysis and the methodology will be standardized across all participating sites, as described in the CPET manual. Testing included continuous ECG monitoring by trained personnel and was performed in an area that was equipped for cardiopulmonary resuscitation. Treadmill was the preferred modality for exercise testing. […] Exercise protocols for both modalities were provided in the CPET manual. Patients had to use the same testing modality for all exercise tests during the trial. Whenever possible, CPET was administered by the same trial personnel using the same equipment and performed after the other trial procedures on that visit day (including echocardiogram, KCCQ, EQ-5D-5L, CGI, PGI-C, NYHA class, SAQ-7, vital signs, ECG, blood sampling, IP administration). Patients naïve to exercise protocols were familiarized with the technique during screening. All CPET testing was symptom-limited and patients were strongly encouraged to achieve maximal exertion and an RER ≥1.05. The reason(s) for termination of sub-maximal exercise tests were documented. A test was identified as being maximal effort if the RER is ≥1.05. The Week 24 CPET was performed at approximately the same time of day (eg, morning, mid-day, afternoon) as the baseline CPET at screening, at a consistent time after the last dose of beta blocker and IP. Whenever possible, patients performed exercise testing between three and ten hours after taking beta blocking agents. CPET End Points. We looked at whether aficamten would improve a novel measure of integrated exercise performance that combines complementary measures previously independently related to oHCM prognosis, and that incorporates both submaximal and maximal exercise capacity. A primary outcome was the change from baseline to week 24 in integrated exercise performance, defined as the 2-component Z-score of pVO2 and ventilatory efficiency (VE/VCO2 slope). Response rates for achieving clinically meaningful thresholds for change in pVO2 and correlations with clinical measures of treatment effect (health status, echocardiographic, cardiac biomarkers) were also assessed. The primary analysis was the change from baseline to Week 24 in integrated exercise performance, normalized to a composite of Z-scores for pVO2 and VE/VCO2 slope to capture physiologic responses to maximal and submaximal exercise. The Z-score was derived by reversing the directionality of VE/VCO2 slope such that increases in both Z-score components indicate benefit and equal weights were used for each Z-score component. Secondary end points included assessments for changes from baseline to week 24 in CPET-derived measures during 2 phases of exercise performance: (1) peak exercise (pVO2, peak workload, peak metabolic equivalents [METS], peak circulatory power [VO2× systolic blood pressure], exercise duration, peak respiratory exchange ratio [RER], heart rate reserve, peak heart rate, O2 pulse at peak exercise, proportionate pulse pressure); and (2) during submaximal exercise (pre-anaerobic threshold VE/VCO2 slope, VE/VCO2 slope throughout exercise, ventilatory power, ventilatory anaerobic threshold, and aerobic efficiency). Beta Blocker Co-administration. […]

[1] = Aficamten arm, change baseline to week 24
[2] = Baseline Beta Blocker Use: No, Week 24
[3] = Baseline Beta Blocker Use: Yes, Week 24
[4] = aficamten versus placebo, 24 weeks
[5] = patients treated with aficamten

CCc1nc(-c2ccc3c(c2)CC[C@H]3NC(=O)c2cnn(C)c2)no1 [aficamten, (R)—N-(5-(5-ethyl-1,2,4-oxadiazol-3-yl)-2,3-dihydro-1H-inden-1-yl)-1-methyl-1H-pyrazole-4-carboxamide]
Aerobic efficiency (Aficamten arm, Week 24): 8.6 mL/min/watt
Exercise duration (Aficamten arm, Week 24): 12.4 min
Heart rate reserve (Aficamten arm, Week 24): 66
Integrated 2 component Z-score metric (Aficamten arm, Week 24): 0.16
Peak circulatory power (Aficamten arm, Week 24): 3550 mmHg*mL/min/kg
Peak heart rate (Aficamten arm, Week 24): 135 beats/min
Peak respiratory exchange ratio (Aficamten arm, Week 24): 1.20
Peak workload (Aficamten arm, Week 24): 134 watt
Proportionate pulse pressure (peak) (Aficamten arm, Week 24): 0.51
Proportionate pulse pressure (rest) (Aficamten arm, Week 24): 0.37
Ventilatory anaerobic threshold (Aficamten arm, Week 24): 958 mL
Ventilatory efficiency pre-anaerobic threshold (VE/VCO2 slope) (Aficamten arm, Week 24): 27.4
Ventilatory efficiency throughout exercise (VE/VCO2 slope) (Aficamten arm, Week 24): 30.9
Ventilatory power (Aficamten arm, Week 24): 5.9 mmHg
pVO2 (Aficamten arm, Week 24): 20.2 mL/kg/min
Aerobic efficiency, Abs. diff. [1]: 0.3 mL/min/watt
Exercise duration, Abs. diff. [1]: 1.2 min
Heart rate reserve, Abs. diff. [1]: 7
Integrated 2 component Z-score metric, Abs. diff. [1]: +0.17±0.51
O2 pulse at peak exercise, Abs. diff. [1]: 0.00 mL/beat
Peak circulatory power, Abs. diff. [1]: 537 mmHg*mL/min/kg
Peak heart rate, Abs. diff. [1]: 8 beats/min
Peak respiratory exchange ratio, Abs. diff. [1]: 0.01
Peak workload, Abs. diff. [1]: 14 watt
Proportionate pulse pressure (peak), Abs. diff. [1]: 0.02
Proportionate pulse pressure (rest), Abs. diff. [1]: −0.02
Ventilatory anaerobic threshold, Abs. diff. [1]: 60 mL
Ventilatory efficiency pre-anaerobic threshold (VE/VCO2 slope), Abs. diff. [1]: −1.9
Ventilatory efficiency throughout exercise (VE/VCO2 slope), Abs. diff. [1]: −2.2
Ventilatory power, Abs. diff. [1]: 0.8 mmHg
pVO2, Abs. diff. [1]: 1.8 mL/kg/min
Integrated 2 component Z-score metric, Abs. diff. (Aficamten arm, change baseline to week 24, listed as Aficamten): 0.17
patients with Any Deterioration (small/moderate/large) in pVO2 (Aficamten, 24 weeks): (26.1%)
patients with Any Deterioration (small/moderate/large) in pVO2, number (Aficamten, 24 weeks): 37
patients with Any Improvement (small/moderate/large) in pVO2 (Aficamten, 24 weeks): (73.9%)
patients with Any Improvement (small/moderate/large) in pVO2, number (Aficamten, 24 weeks): 105
patients with Large Improvement in pVO2 (≥3.0 mL/kg/min) (Aficamten, 24 weeks): 32%
patients with Large Improvement in pVO2 (≥3.0 mL/kg/min), number (Aficamten, 24 weeks): 46
patients with Moderate/Large Improvement in pVO2 (≥1.5 mL/kg/min) (Aficamten, 24 weeks): (52.8%)
patients with Moderate/Large Improvement in pVO2 (≥1.5 mL/kg/min), number (Aficamten, 24 weeks): 75
patients with Large Improvement in pVO2 (≥3.0 mL/kg/min) (Aficamten, 24 weeks, listed as Aficamten): (32.4%)
Change in Exercise Duration on CPET from Baseline to Week 24, LS Mean (SE) (Baseline Beta Blocker Use: No): 1.2 (0.26) minutes
Change in Exercise Duration on CPET from Baseline to Week 24, LS Mean Diff vs. Placebo (SE) (Baseline Beta Blocker Use: No): 1.1 (0.38) minutes
Change in Exercise Duration on CPET from Baseline to Week 24, Mean (SD) (Baseline Beta Blocker Use: No): 1.3 (2.34) minutes
Change in Exercise Duration on CPET from Baseline to Week 24, Median (Baseline Beta Blocker Use: No): 1.1 min
Change in peak METs from Baseline to Week 24, LS Mean (SE) (Baseline Beta Blocker Use: No): 0.62 (0.113) METs
Change in peak METs from Baseline to Week 24, LS Mean Diff vs. Placebo (SE) (Baseline Beta Blocker Use: No): 0.55 (0.162) METs
Change in peak METs from Baseline to Week 24, Mean (SD) (Baseline Beta Blocker Use: No): 0.65 (1.029) METs
Change in peak METs from Baseline to Week 24, Median (Baseline Beta Blocker Use: No): 0.47 METs
Exercise Duration on CPET, Baseline, Mean (SD) (Baseline Beta Blocker Use: No): 11.0 (3.52) minutes
Exercise Duration on CPET, Baseline, Median (Baseline Beta Blocker Use: No): 10.3 min
peak METs (pVO2/3.5 (mL/kg/min)) on CPET, Baseline, Mean (SD) (Baseline Beta Blocker Use: No): 5.27 (1.314) METs
peak METs (pVO2/3.5 (mL/kg/min)) on CPET, Baseline, Median (Baseline Beta Blocker Use: No): 5.11 METs
Exercise Duration on CPET, Week 24, Mean (SD) [2]: 12.2 (4.39) minutes
Exercise Duration on CPET, Week 24, Median [2]: 11.3 min
peak METs (pVO2/3.5 (mL/kg/min)) on CPET, Week 24, Mean (SD) [2]: 5.89 (1.481) METs
peak METs (pVO2/3.5 (mL/kg/min)) on CPET, Week 24, Median [2]: 5.66 METs
Change in Exercise Duration on CPET from Baseline to Week 24, LS Mean (SE) (Baseline Beta Blocker Use: Yes): 1.0 (0.22) minutes
Change in Exercise Duration on CPET from Baseline to Week 24, LS Mean Diff vs. Placebo (SE) (Baseline Beta Blocker Use: Yes): 0.9 (0.30) minutes
Change in Exercise Duration on CPET from Baseline to Week 24, Mean (SD) (Baseline Beta Blocker Use: Yes): 1.1 (1.98) minutes
Change in Exercise Duration on CPET from Baseline to Week 24, Median (Baseline Beta Blocker Use: Yes): 0.5 min
Change in peak METs from Baseline to Week 24, LS Mean (SE) (Baseline Beta Blocker Use: Yes): 0.40 (0.093) METs
Change in peak METs from Baseline to Week 24, LS Mean Diff vs. Placebo (SE) (Baseline Beta Blocker Use: Yes): 0.46 (0.130) METs
Change in peak METs from Baseline to Week 24, Mean (SD) (Baseline Beta Blocker Use: Yes): 0.41 (0.781) METs
Change in peak METs from Baseline to Week 24, Median (Baseline Beta Blocker Use: Yes): 0.31 METs
Exercise Duration on CPET, Baseline, Mean (SD) (Baseline Beta Blocker Use: Yes): 11.4 (2.55) minutes
Exercise Duration on CPET, Baseline, Median (Baseline Beta Blocker Use: Yes): 11.1 min
peak METs (pVO2/3.5 (mL/kg/min)) on CPET, Baseline, Mean (SD) (Baseline Beta Blocker Use: Yes): 5.24 (1.251) METs
peak METs (pVO2/3.5 (mL/kg/min)) on CPET, Baseline, Median (Baseline Beta Blocker Use: Yes): 5.28 METs
Exercise Duration on CPET, Week 24, Mean (SD) [3]: 12.5 (3.61) minutes
Exercise Duration on CPET, Week 24, Median [3]: 12.4 min
peak METs (pVO2/3.5 (mL/kg/min)) on CPET, Week 24, Mean (SD) [3]: 5.70 (1.497) METs
peak METs (pVO2/3.5 (mL/kg/min)) on CPET, Week 24, Median [3]: 5.64 METs
patients with large pVO2 deteriorations/reductions (≥3.0 mL/kg/min) (aficamten group, 24 weeks): 2%
Any Deterioration in pVO2, NNT [4]: −3.8
Any Deterioration in pVO2, OR [4]: 0.32
Any Deterioration in pVO2, Risk Difference [4]: −26%
Any Improvement in pVO2, NNT [4]: 3.8 and < 4
Any Improvement in pVO2, OR [4]: 3.09
Any Improvement in pVO2, Risk Difference [4]: +26%
Large Improvement in pVO2, NNT [4]: 6.3
Large Improvement in pVO2, OR [4]: 2.44
Large Improvement in pVO2, Risk Difference [4]: +15.%
Moderate/Large Improvement in pVO2, NNT [4]: 4.7
Moderate/Large Improvement in pVO2, OR [4]: 2.44
Moderate/Large Improvement in pVO2, Risk Difference [4]: +21%
Any Improvement in pVO2, NNT (aficamten versus placebo, 24 weeks, listed as Aficamten): 3.8
Aerobic efficiency, Adjusted difference (LS mean treatment difference) (aficamten vs placebo, week 24): 0.2 mL/min/watt
Exercise duration, Adjusted difference (LS mean treatment difference) (aficamten vs placebo, week 24): 1.0 min
Heart rate reserve, Adjusted difference (LS mean treatment difference) (aficamten vs placebo, week 24): 6
Integrated 2 component Z-score metric, Adjusted difference (LS mean treatment difference) (aficamten vs placebo, week 24): +0.35
O2 pulse at peak exercise, Adjusted difference (LS mean treatment difference) (aficamten vs placebo, week 24): 0.003 mL/beat
Peak circulatory power, Adjusted difference (LS mean treatment difference) (aficamten vs placebo, week 24): 586 mmHg*mL/min/kg
Peak heart rate, Adjusted difference (LS mean treatment difference) (aficamten vs placebo, week 24): 9 beats/min
Peak respiratory exchange ratio, Adjusted difference (LS mean treatment difference) (aficamten vs placebo, week 24): 0.00
Peak workload, Adjusted difference (LS mean treatment difference) (aficamten vs placebo, week 24): 12 watt
Proportionate pulse pressure (peak), Adjusted difference (LS mean treatment difference) (aficamten vs placebo, week 24): 0.01
Proportionate pulse pressure (rest), Adjusted difference (LS mean treatment difference) (aficamten vs placebo, week 24): −0.01
Ventilatory anaerobic threshold, Adjusted difference (LS mean treatment difference) (aficamten vs placebo, week 24): 59 mL
Ventilatory efficiency pre-anaerobic threshold (VE/VCO2 slope), Adjusted difference (LS mean treatment difference) (aficamten vs placebo, week 24): −1.5
Ventilatory efficiency throughout exercise (VE/VCO2 slope), Adjusted difference (LS mean treatment difference) (aficamten vs placebo, week 24): −2.3
Ventilatory power, Adjusted difference (LS mean treatment difference) (aficamten vs placebo, week 24): 0.9 mmHg
pVO2, Adjusted difference (LS mean treatment difference) (aficamten vs placebo, week 24): 1.7 mL/kg/min
Integrated 2 component Z-score metric, Adjusted difference (LS mean treatment difference) (aficamten vs placebo, week 24, listed as Aficamten): 0.35
improvement in Exercise Duration on CPET: influence of beta blockers (baseline to Week 24): not significantly diminished by the use of beta blockers
improvement in peak metabolic equivalents (peak METs) on CPET: influence of beta blockers (baseline to Week 24): not significantly diminished by the use of beta blockers
times less likely to experience worsening of pVO2 than those on placebo (categorical threshold analyses): more than 5 times
patients who experienced an improvement in pVO2 [5]: 72.2%
patients with large improvement (≥3.0 mL/kg/min) in pVO2 [5]: 27.8%
patients with moderate improvement (≥1.5 to <3.0 mL/kg/min) in pVO2 [5]: 21.8%
patients with small improvement (0 to <1.5) in pVO2 [5]: 22.6%
LSM difference in pVO2 (95% CI) (patients who were also on beta blockers): 1.6 (0.7 to 2.5) mL/kg/min
LSM difference in pVO2 (95% CI) (patients who were not on beta blockers): 1.9 (0.8 to 3.1) mL/kg/min
